Test results published in patent US8969303B2, “Tocotrienol esters” (First Tech International Limited, priority 2010, dated 2015).

Experiments:
[1] = Stability in phosphate buffer; format: physicochemical; conditions: 24 h, 500 μg/mL, pH 7.4
Protocol: The stability of each of α-tocotrienol and Compound 6 was studied at 37° C. in phosphate buffer (pH 7.4). In amber vials, 500 μg/mL of each compound were dissolved in the buffer and the solution was incubated at 37° C. At interval times (0, 0.5, 1, 2, 4, 6, and 24 h), 50 μL it samples were collected and equal volumes of methanol were added to each sample followed by HPLC analysis.
(§1) A Shimadzu HPLC system (Columbia, Md.) was used for quantification of α-tocotrienol and Compound 6. This system is composed of SIL 20-AHT autosampler, SPD-20A UV/VIS detector, and LC-20AB pump connected to a Dgu-20A3 degasser. Data acquisition was achieved by LC Solution software version 1.22 SP1 Shimadzu. The following chromatographic conditions were used: […] (250×4.6 mm id; Phenomenex, Torrance, Calif.), flow rate was adjusted to 1.0 mL/min, and λ was set at 295 nm. For α-tocotrienol solubility and stability studies, an isocratic elution with MeOH-EtOH—CH3CN (40:30:30, v/v/v) as mobile phase for 10 min. α-tocotrienol was eluted at 6.7 min. For the simultaneous separation of α-tocotrienol and Compound 6 the following gradient elution was also used starting with H2O— MeOH—N(Et)3 (10:90:0.05, v/v/v) for 5 min, followed by isocratic MeOH—N(Et)3 (100:0.05, v/v) for another 10 min. The retention times were 4 and 14.1 for Compound 6 and α-tocotrienol, respectively. Standard curves for α-tocotrienol and Compound 6 in MeOH were prepared in the range of 0.4-50 μg/mL and 1-1000 μg/mL, respectively. Each compound was quantified using its calibration curve for compounds peak area versus its concentration.

[2] = tested on: +SA mammary epithelial cells; test: Antiproliferative MTT assay on +SA mammary epithelial cells; format: cell-based, mouse; conditions: malignant mice +SA mammary cells, 24 hour treatment, MTT
Description: +SA mammary epithelial cell lines were serially passaged at subconfluent cell density. The +SA cell line was derived from an adenocarcinoma that developed spontaneously in a BALB/c female mouse. That cell line is discussed in more detail in Anderson, L. W., Danielson, K. G., Hosick, H. L. Eur. J. Cancer Clin. Oncol. 1981, 17, 1001-1008, Danielson, K G., Anderson, L. W., Hosick, H. L. Cancer Res. 1980, 40, 1812-1819.31, and Anderson, L. W., Danielson, K. G., Hosick, H. L. In Vitro. 1979, 15, 841-843. Cell culture conditions were similar to those described in detail in Shah, S. J., Gapor, A., Sylvester, P. W. Nutr. Cancer. 2003, 45, 236-246, Shah, S. J., Sylvester, P. W. Biochem. Cell. Biol. 2005, 83, 86-95, Wali, V. B., Sylvester, P. W. Lipids, 2007, 42, 1113-1123, and Wali, V. B., Bachawal, S. V., Sylvester, P. W. Exp. Biol. Med. (Maywood) 2009, 234, 639-650. Briefly, +SA cells were maintained in serum-free defined medium consisting of Dulbecco's modified Eagle's medium (DMEM)/F12 containing 5 mg/ml bovine serum albumin (BSA), […], 100 U/ml soybean trypsin inhibitor, 100 U/ml penicillin, 0.1 mg/ml streptomycin, […], and 10 ng/ml epidermal growth factor. For subculturing, cells were rinsed twice with sterile Ca^2+ and Mg^2+-free phosphate buffered saline (PBS) and incubated in 0.05% trypsin containing 0.025% EDTA in PBS for 5 minutes at 37° C. The released cells were centrifuged, resuspended in serum-free defined media and counted using a hemocytometer. A stock solution of the Compounds was prepared in DMSO. Once dissolved, this solution was added to a small volume of sterile 10% BSA in water and incubated overnight at 37° C. This solution conjugated to BSA was used to prepare various concentrations (0-40 μM) of tocotrienol analogs. DMSO was added to all treatment media such that the final DMSO concentration was the same in all treatment groups within a given experiment and was always less than 0.1%. For cytotoxicity studies, cells were seeded at a density of 5×10^4 cells/well (6 wells/group) in 24-well culture plates and allowed to grow in serum-free control defined media. After a 3 day incubation period (approximately 70% confluency), cells were divided equally into various treatment groups and exposed to their respective treatments for a 24 hour incubation period. Following the 24 hour treatment period, cell viability was measured using the MTT assay. All materials were purchased from Sigma Chemical Company (St. Louis, Mo.) unless otherwise stated.
+SA mammary epithelial cell viable number was determined by the 3-(4,5-dimethylthiazol-2-yl)-2,5-diphenyl tetrazolium bromide (MTT) colorimetric assay. On the day of assay, treatment medium was replaced with fresh growth medium containing 0.42 mg/ml MTT, and the cells in 24-well plates were incubated at 37° C. for 4 hours. Afterward, the medium was removed, and the MTT crystals were dissolved in isopropyl alcohol (1 ml/well). The optical density of each sample was read at 570 nm on a microplate reader (SpectraCount, Packard BioScience Company), against a blank prepared from cell-free cultures. The number of cells/well was calculated against a standard curve prepared by plating various concentrations of cells, as determined by hemocytometer, at the start of each experiment.
Differences among the various treatment groups in +SA cell cytotoxic studies were determined by analysis of variance (ANOVA) followed by Dunnett's t-test. The difference of P<0.05 was considered to be statistically significant as compared with vehicle-treated controls. Linear regression analysis of treatment effects on viable cell number in growth and cytotoxicity studies was used to determine the 50% growth inhibition concentration (IC50) for individual treatments.

[3] = Water solubility in phosphate buffer; format: physicochemical; conditions: phosphate buffer pH 7.4, 25° C.
Protocol: About 5.6 mg of each of α-tocotrienol and Compound 6 were added to 3 mL of phosphate buffer (pH 7.4) in amber vials. Tested solutions were maintained shaking under at 25° C. for 24 h in a constant-temperature water bath. Each solution was then centrifuged at 5,000 rpm for 10 min before collecting samples from the clear supernatant at 0, 1, 2, 4, 6, and 24 h. Each compound concentration in the aspirates was determined by HPLC. […] The solubility of α-tocotrienol maleate (Compound 6) was nearly 1000 fold that of its parent α-tocotrienol.
A Shimadzu HPLC system (Columbia, Md.) was used for quantification of α-tocotrienol and Compound 6. This system is composed of SIL 20-AHT autosampler, SPD-20A UV/VIS detector, and LC-20AB pump connected to a Dgu-20A3 degasser. Data acquisition was achieved by LC Solution software version 1.22 SP1 Shimadzu. The following chromatographic conditions were used: […] (250×4.6 mm id; Phenomenex, Torrance, Calif.), flow rate was adjusted to 1.0 mL/min, and λ was set at 295 nm. For α-tocotrienol solubility and stability studies, an isocratic elution with MeOH-EtOH—CH3CN (40:30:30, v/v/v) as mobile phase for 10 min. α-tocotrienol was eluted at 6.7 min. […] Each compound was quantified using its calibration curve for compounds peak area versus its concentration.

Stability in rat plasma = format: in vitro ADME; conditions: 37° C.
Protocol: The stability of each of α-tocotrienol and Compound 6 was studied at 37° C. in rat plasma. In amber vials, 50 μg/mL of each Compound were dissolved in the plasma. The solution was incubated at 37° C., and at interval times (0, 0.5, 1, 2, 4, 6, and 24 h), 50 μL samples were taken and mixed with 100 μL of methanol followed by centrifugation at 14,000 rpm for 10 min. Each supernatant was analyzed by HPLC. In rat plasma, Compound 6 concentration was 100% stable over the first 3 h. Its concentration then started to decrease at the […] to become 81% and 77% of the initial concentration, respectively. After 24 hours, only 43% of the initial concentration of Compound 6 was detectable. The slow rate of hydrolysis of Compound 6 compared to α-tocotrienol may bode well for expected enhanced metabolic stability.
as §1

- chemical stability relative to the zero time concentration [1]: 100%
- solubility relative to parent α-tocotrienol [3]: ~1000 fold
- % of the initial concentration in rat plasma (Stability in rat plasma; 4th hour): 81%
- % of the initial concentration in rat plasma (Stability in rat plasma; 5th hour): 77%
- % of the initial concentration in rat plasma (Stability in rat plasma; after 24 hours): 43%
- concentration stable in rat plasma (Stability in rat plasma; over the first 3 h): 100%
Compound: CC(C)=CCC/C(C)=C/CC/C(C)=C/CC[C@]1(C)CCc2c(C)c(OC(=O)/C=C\C(=O)O)c(C)c(C)c2O1 [Compound 6, (Z)-4-oxo-4-((R)-2,5,7,8-tetramethyl-2-((3E,7E)-4,8,12-trimethyltrideca-3,7,11-trienyl)chroman-6-yloxy)but-2-enoic acid]
- IC50 ([2]; Mus musculus, Epithelial cell, 24 h): 510 nM
- IC50 [2]: 520 nM
